Measurements: patent US8933065B2, “N-benzylamide substituted derivatives of 2-(acylamido)acetic acid and 2-(acylamido)propionic acids: potent neurological agents” (The University of North Carolina at Chapel Hill, priority 2008, dated 2015)

Columns and labels:
Assay type in all cases: in vivo
[1] = test system: maximal electroshock (MES)-induced seizures; assay: Maximal electroshock seizure (MES) test, mice (ip); conditions: for ED50: Mus musculus
Protocol: (§2) The maximal electroconvulsive shock (MES) test is regarded as a standard screen for anticonvulsant activity in terms of inhibition of seizure spread in generalized tonic-clonic seizures.
(§3) Groups of at least 8 male albino CF No. 1 mice or male albino Sprague-Dawley rats are treated with 10 mL/kg i.p. or 4 mL/kg p.o. of the test compound solution, respectively. The electrical stimulus in the MES test is 50 mA at 60 Hz for mice and 150 mA at 60 Hz for rats, both delivered for 0.2 sec. Abolition of the hind leg tonic extensor component of the seizure is used as the endpoint.

[2] = test system: neurologic toxicity (rotorod test); assay: Neurologic toxicity, rotorod test, mice (ip)
Protocol: (§1) Tests are conducted in groups of at least 8 mice or rats to determine the intrinsic neurotoxicity (neuromuscular impairment) after administration of the test compound by the route of administration to be used in the pharmacology studies. Neurotoxicity is determined in male CF No 1 mice by the rotarod procedure. Inability of the mouse to maintain its equilibrium in 3 trials during 1 min on this rotating rod (6 rpm) is used as an indication of such impairment. In Sprague-Dawley rats, minimal motor impairment (MMI) is determined by overt evidence of ataxia, abnormal gait, and stance.

behavioral toxicity = assay: Toxicity (behavioral toxicity), rat (po)
Protocol: as §1

[3] = test system: maximal electroshock (MES)-induced seizures; assay: Maximal electroshock seizure (MES) test, rat (po); conditions: Rattus norvegicus
Protocol: as §2, §3

[4] = mice, ip, time (h) in brackets, Table 3, NINDS ASP
[5] = mice, ip, 95% confidence intervals in parentheses, Table 1
[6] = behavioral toxicity, Table b608
[7] = mice, ip, time (h) in brackets, (terminal ring group)

Structure (SMILES): COC[C@@H](NC(C)=O)C(=O)NCc1ccc([N+](=O)[O-])cc1 [F, reference compound]
- ED50 ([1]; mice (ip), text b213): 100 to 300 mg/kg

Structure (SMILES): COC[C@H](NC(C)=O)C(=O)NCc1ccccc1 [(S)—B, reference compound]
- Tox, TD50 ([2]; time (h) in brackets, Table 2): >300 [0.5]

Structure (SMILES): COC[C@H](NC(C)=O)C(=O)NCc1ccc(N=[N+]=[N-])cc1 [(S)-5, (S)—N-(4-Azidobenzyl)-2-acetamido-3-methoxypropanamide, reference compound]
- Tox, TD50 (behavioral toxicity; time (h) in brackets, Table 2): > 30 mg/kg

Structure (SMILES): COC[C@H](NC(C)=O)C(=O)NCc1ccc(OCc2cccc(F)c2)cc1 [(S)-3, (S)-2-Acetamido-N-(4-(3-fluorobenzyloxy)benzyl)-3-methoxypropanamide]
- Tox, TD50 ([2]; time (h) in brackets, Table 2): >300 [0.5]

Structure (SMILES): COC[C@@H](NC(C)=O)C(=O)NCc1ccc(CCc2cccc(F)c2)cc1 [(R)-13]
- Tox, TD50 (behavioral toxicity; behavioral toxicity, Table b607): >30 [1] milligrams per kilogram
- ED50 ([3]; read-out: MES, ED50, rat, po): < 30 mg/kg

Structure (SMILES): COC[C@@H](NC(C)=O)C(=O)NCc1ccccc1 [(R)—B, (2R)-2-(acetylamino)-N-benzyl-3-methoxypropanamide, reference compound]
- Tox, TD50 (behavioral toxicity; time (h) in brackets, Table 2): > 500 mg/kg

Structure (SMILES): COC[C@@H](NC(C)=O)C(=O)NCc1ccc(C2(C(F)(F)F)N=N2)cc1 [(R)-9]
- ED50 ([1]; mice, ip, time (h) in brackets, Table 2, footnotes not given): 15.1 mg/kg

Structure (SMILES): COC[C@H](NC(C)=O)C(=O)NCc1ccc(OCc2cccc(F)c2)cc1 [(S)-10, (S)-2-Acetamido-N-(4-(3-fluorobenzyloxy)benzyl)-3-methoxypropanamide]
- Tox, TD50 ([2]; rotorod test, Table 3): >300 milligrams per kilogram
- MES, ED50 [1, 4]: >300 milligrams per kilogram

Structure (SMILES): CC(=O)NC(C(=O)NCc1ccccc1)c1ccco1 (racemic) [(R,S)-5, reference compound]
- MES, ED50 [1, 5]: 10 (9.1-12) mg/kg

Structure (SMILES): CC(=O)NC(C(=O)NCc1ccccc1)c1ccccc1 (racemic) [(R,S)-6, reference compound]
- MES, ED50 [1, 5]: 32 mg/kg

Structure (SMILES): C=CCOCC(NC(C)=O)C(=O)NCc1ccccc1 (racemic) [(R,S)-11, reference compound]
- MES, ED50 ([1]; mice, ip): >30, <100 mg/kg

Structure (SMILES): COC[C@@H](NC(C)=O)C(=O)NCc1ccc(OCc2ccc(F)cc2)cc1 [(R)-22, (R)—N-4-(4-Fluorobenzyloxy)benzyl 2-Acetamido-3-methoxypropionamide]
- Tox, TD50 (behavioral toxicity; [6]): >500 milligrams per kilogram

Structure (SMILES): CC(=O)NC(C)C(=O)NCc1ccccc1 (racemic) [(R,S)-4, reference compound]
- MES, ED50 [1, 5]: 77 (67-89) mg/kg

Structure (SMILES): CC(=O)NC(C(=O)NCc1ccc(OCc2cccc(F)c2)cc1)c1ccccn1 (racemic) [(R,S)-9, N-4-(3-Fluorobenzyloxy)benzyl 2-Acetamido-2-(pyridin-2-yl)acetamide]
- Tox, TD50 (behavioral toxicity; behavioral toxicity, Table 3): >30 [4] milligrams per kilogram
- ED50 ([3]; read-out: MES, ED50, rat, po, Table 3): > 30 mg/kg
- MES, ED50 [1, 4]: 28 [0.5] (20-36) milligrams per kilogram

Structure (SMILES): CCOCC(NC(C)=O)C(=O)NCc1ccccc1 (racemic) [(R,S)-10, reference compound]
- MES, ED50 ([1]; mice, ip): 17 mg/kg

Structure (SMILES): COC[C@@H](NC(C)=O)C(=O)NCc1ccc(OCc2ccccc2)cc1 [(R)-20, (R)—N-4′-(Benzyloxy)benzyl 2-N-Acetamido-3-methoxypropionamide]
- Tox, TD50 (behavioral toxicity; [6]): >250 [1.0] milligrams per kilogram
- Tox, TD50 ([2]; rotorod test, Table b608): 22 [0.25] (19- milligrams per kilogram
- MES, ED50 [1, 7]: 5.8 [0.25] (4.4-7.2) milligrams per kilogram

Structure (SMILES): COC[C@@H](NC(C)=O)C(=O)NCc1ccc(OCc2ccccc2F)cc1 [(R)-21, (R)—N-4-(2-Fluorobenzyloxy)benzyl 2-Acetamido-3-methoxypropionamide]
- Tox, TD50 (behavioral toxicity; [6]): >500 milligrams per kilogram
- Tox, TD50 ([2]; rotorod test, Table b608): 37 [0.5] (29-48) milligrams per kilogram
- MES, ED50 [1, 7]: 6.7 [0.25] (4.8-9.1) milligrams per kilogram

Structure (SMILES): CC(=O)NC(C(=O)NCc1ccc(C)cc1)c1ccccc1 (stereo not drawn) [D, reference compound]
- ED50 ([1]; mice (ip), text b213): ~300 mg/kg

Structure (SMILES): COC[C@@H](NC(C)=O)C(=O)NCc1ccc(N=[N+]=[N-])cc1 [(R)-5, (R)—N-(4-Azidobenzyl)-2-acetamido-3-methoxypropanamide, reference compound]
- Tox, TD50 (behavioral toxicity; time (h) in brackets, Table 2): > 250 mg/kg
